Drawing on ChEMBL document CHEMBL1141053, “Synthesis and SAR of novel oxazolidinones: discovery of ranbezolid” (2005), this text covers MIC and ED50 for 14 compounds.

As usually defined, the MIC is the lowest concentration that inhibits growth of the organism. By ED50 is commonly meant the dose at which the effect has come halfway, by size or by number of responders. A high value points to a need for a large dose.

SMILES strings stand for the structures. ≈ marks a conversion by molar mass, not a printed value. Bounds are passed on as bounds.

Type in all cases: functional
In one test the test system is Streptococcus pneumoniae. The test can be described thus: In vitro minimum inhibitory concentration against Streptococcus pneumoniae ATCC 6303 after incubation in air at 35 degree C for 24 hr using agar dilution method. The following applies: ATCC 6303, 24 h. (Agar dilution tests growth on a series of plates holding different concentrations.)
The subject of test [1] is Staphylococcus aureus. The test can be described thus: In vitro minimum inhibitory concentration against methicillin-resistant Staphylococcus aureus 562 after incubation in air at 35 degree C for 24 hr using agar dilution method.
Another test deals with Enterococcus faecium. The test can be described thus: In vitro minimum inhibitory concentration against vancomycin-resistant Enterococcus faecium 6A after incubation in air at 35 degree C for 24 hr using agar dilution method.
For test [2], the system named is Staphylococcus aureus. The test can be described thus: In vitro minimum inhibitory concentration against Staphylococcus aureus ATCC 25923 after incubation in air at 35 degree C for 24 hr using agar dilution method. The following applies: ATCC 25923, 24 h.
The test system of the next test is Enterococcus faecalis. The test can be described thus: In vitro minimum inhibitory concentration against Enterococcus faecalis ATCC 29212 after incubation in air at 35 degree C for 24 hr using agar dilution method. The following applies: ATCC 29212, 24 h.
For the next test, the system named is Streptococcus pyogenes. The test can be described thus: In vitro minimum inhibitory concentration against Streptococcus pyogenes ATCC 19615 after incubation in air at 35 degree C for 24 hr using agar dilution method. The following applies: ATCC 19615, 24 h.
Test [3] concerns Staphylococcus aureus. The test can be described thus: In vivo effective dose (on day 7-post-infection) against methicillin-resistant Staphylococcus aureus 562 infected mice upon peroral administration at 30 min and 4 hr post-infection. The note with it: po.

Consider `CC(=O)NC[C@H]1CN(c2ccc(N3CCN(Cc4ccc(/C=N/O)o4)CC3)c(F)c2)C(=O)O1`, for which the MIC against Streptococcus pneumoniae was 8 µg/mL (≈ 17.4 µM); against Staphylococcus aureus [1] it was 2 µg/mL (≈ 4.35 µM); in the test with Enterococcus faecium it was 8 µg/mL (≈ 17.4 µM); with Staphylococcus aureus [2] it was 2 µg/mL (≈ 4.35 µM); against Enterococcus faecalis, 16 µg/mL (≈ 34.8 µM); against Streptococcus pyogenes, 4 µg/mL (≈ 8.71 µM).
Take `CC(=O)NC[C@H]1CN(c2ccc(N3CCN(Cc4ccco4)CC3)c(F)c2)C(=O)O1`: the MIC came to 8 µg/mL (≈ 19.2 µM) against Streptococcus pneumoniae; 8 µg/mL (≈ 19.2 µM) against Staphylococcus aureus [1]; 8 µg/mL (≈ 19.2 µM) with Enterococcus faecium; 8 µg/mL (≈ 19.2 µM) with Staphylococcus aureus [2]; 8 µg/mL (≈ 19.2 µM) against Enterococcus faecalis; 4 µg/mL (≈ 9.6 µM) against Streptococcus pyogenes. The ED50 in the test on Staphylococcus aureus [3] was above 25 mg/kg.
As to `CC(=O)NC[C@H]1CN(c2ccc(N3CCN(Cc4ccc([N+](=O)[O-])s4)CC3)c(F)c2)C(=O)O1`, the MIC with Streptococcus pneumoniae came to 8 µg/mL (≈ 16.8 µM); against Staphylococcus aureus [1], 8 µg/mL (≈ 16.8 µM); in the test on Enterococcus faecium, 8 µg/mL (≈ 16.8 µM); against Staphylococcus aureus [2], 8 µg/mL (≈ 16.8 µM); in the test with Enterococcus faecalis, 8 µg/mL (≈ 16.8 µM); against Streptococcus pyogenes, 1 µg/mL (≈ 2.09 µM).
Turning to `CC(=O)NC[C@H]1CN(c2ccc(N3CCN(Cc4ccc(C=O)o4)CC3)c(F)c2)C(=O)O1`, the MIC is 4 µg/mL (≈ 9 µM) against Streptococcus pneumoniae; 1 µg/mL (≈ 2.25 µM) against Staphylococcus aureus [1]; 8 µg/mL (≈ 18 µM) in the test on Enterococcus faecium; 1 µg/mL (≈ 2.25 µM) in the test on Staphylococcus aureus [2]; 8 µg/mL (≈ 18 µM) against Enterococcus faecalis; 8 µg/mL (≈ 18 µM) with Streptococcus pyogenes. The compound also returned an ED50 in the test on Staphylococcus aureus [3] above 25 mg/kg.
As to `CC(=O)NC[C@H]1CN(c2ccc(N3CCN(Cc4ccc(Cl)o4)CC3)c(F)c2)C(=O)O1`, the MIC in the test on Streptococcus pneumoniae, with Staphylococcus aureus [1], in the test on Enterococcus faecium, against Staphylococcus aureus [2], in the test with Enterococcus faecalis and in the test with Streptococcus pyogenes was above 16 µg/mL throughout.
On to `CN[C@H](CC(C)C)C(=O)N[C@H]1C(=O)N[C@@H](CC(N)=O)C(=O)N[C@H]2C(=O)N[C@H]3C(=O)N[C@H](C(=O)N[C@H](C(=O)O)c4cc(O)cc(O)c4-c4cc3ccc4O)[C@H](O)c3ccc(c(Cl)c3)Oc3cc2cc(c3O[C@@H]2O[C@H](CO)[C@@H](O)[C@H](O)[C@H]2O[C@H]2C[C@](C)(N)[C@H](O)[C@H](C)O2)Oc2ccc(cc2Cl)[C@H]1O` [VANCOMYCIN], for which the figures for the MIC against Streptococcus pneumoniae and against Enterococcus faecalis were 0.5 µg/mL (≈ 0.345 µM) and above 16 µg/mL, respectively. Further, in the test with Staphylococcus aureus [3], the ED50 was determined as 8.8 mg/kg.
Consider `CC(=O)NC[C@H]1CN(c2ccc(N3CCC(N(C(C)=O)c4ccc([N+](=O)[O-])o4)CC3)c(F)c2)C(=O)O1`, for which the MIC against Streptococcus pneumoniae, in the test with Staphylococcus aureus [1], against Enterococcus faecium, against Staphylococcus aureus [2], against Enterococcus faecalis and against Streptococcus pyogenes was above 16 µg/mL throughout.
On to `CC(=O)NC[C@H]1CN(c2ccc(N3CCOCC3)c(F)c2)C(=O)O1` [LINEZOLID], for which the ED50 with Staphylococcus aureus [3] stood at 5.6 mg/kg. The MIC with Enterococcus faecium and in the test on Streptococcus pyogenes was 2 µg/mL (≈ 5.93 µM) each time.
Regarding `CC(=O)NC[C@H]1CN(c2ccc(N3C[C@@H]4[C@@H](CN(C)c5ccc([N+](=O)[O-])o5)[C@@H]4C3)c(F)c2)C(=O)O1`, the MIC against Staphylococcus aureus [1] was 1 µg/mL (≈ 2.05 µM); against Enterococcus faecium, 2 µg/mL (≈ 4.1 µM); against Staphylococcus aureus [2] it was 2 µg/mL (≈ 4.1 µM); against Enterococcus faecalis, 4 µg/mL (≈ 8.21 µM); in the test on Streptococcus pyogenes it was 0.125 µg/mL (≈ 0.256 µM). The same compound registered an ED50 in the test on Staphylococcus aureus [3] above 25 mg/kg.
`CC(=O)NC[C@H]1CN(c2ccc(N3CCC(N(C)c4ccc([N+](=O)[O-])o4)C(C)C3)c(F)c2)C(=O)O1` (stereo partly specified): the MIC in the test on Streptococcus pneumoniae, in the test on Staphylococcus aureus [1], with Enterococcus faecium, in the test on Staphylococcus aureus [2], against Enterococcus faecalis and in the test on Streptococcus pyogenes was above 16 µg/mL in each case.
Turning to `CC(=O)NC[C@H]1CN(c2ccc(N3C[C@@H]4[C@H](C3)[C@H]4N(C)c3ccc([N+](=O)[O-])o3)c(F)c2)C(=O)O1`, the MIC in the test on Streptococcus pneumoniae is 2 µg/mL (≈ 4.22 µM); with Enterococcus faecium, 2 µg/mL (≈ 4.22 µM); with Staphylococcus aureus [2], 2 µg/mL (≈ 4.22 µM); in the test on Enterococcus faecalis it was 1 µg/mL (≈ 2.11 µM); against Streptococcus pyogenes, 0.06 µg/mL (≈ 0.127 µM).
In the case of `CC(=O)NC[C@H]1CN(c2ccc(N3CCCN(Cc4ccc([N+](=O)[O-])o4)CC3)c(F)c2)C(=O)O1.Cl`, the MIC with Streptococcus pneumoniae worked out at 1 µg/mL; in the test on Staphylococcus aureus [1] it was 1 µg/mL; against Enterococcus faecium it was 2 µg/mL; in the test with Staphylococcus aureus [2], 2 µg/mL; against Enterococcus faecalis, 2 µg/mL; against Streptococcus pyogenes, 1 µg/mL. Besides, the ED50 in the test on Staphylococcus aureus [3] is above 25 mg/kg.
As to `CC(=O)NC[C@H]1CN(c2ccc(N3CCC(N(C)c4ccc([N+](=O)[O-])o4)CC3)c(F)c2)C(=O)O1`, the MIC was determined as 0.5 µg/mL (≈ 1.05 µM) against Streptococcus pneumoniae; 0.5 µg/mL (≈ 1.05 µM) with Staphylococcus aureus [1]; 0.5 µg/mL (≈ 1.05 µM) against Enterococcus faecium; 1 µg/mL (≈ 2.1 µM) against Staphylococcus aureus [2]; 0.25 µg/mL (≈ 0.526 µM) against Enterococcus faecalis; 0.125 µg/mL (≈ 0.263 µM) in the test with Streptococcus pyogenes. Besides, the ED50 in the test with Staphylococcus aureus [3] is 7.43 mg/kg.
For the compound `CC(=O)NC[C@H]1CN(c2ccc(N3CCN(Cc4ccc(Br)o4)CC3)c(F)c2)C(=O)O1`, the MIC in the test on Streptococcus pneumoniae, against Staphylococcus aureus [1], in the test with Enterococcus faecium, in the test with Staphylococcus aureus [2], with Enterococcus faecalis and against Streptococcus pyogenes was above 16 µg/mL each time.
